Blank lines part the entries; values can stand above or below the molecule they belong to. Where a SMILES comes first, the peptide text is derived from it. [ ]: non-standard residue; d: D form. The star is where a group is joined. Dolaproine = CO[C@@H]([C@@H]1CCCN1)[C@@H](C)C(=O)O; Dil = CC[C@H](C)[C@H](NC)[C@@H](CC(=O)O)OC; X1 = C[C@@H](N*)[C@@H](O)c1ccccc1; NMeV = CN[C@H](C(=O)O)C(C)C
How the values were obtained:
KNS42 cells = experiment: Cell cycle distribution analysis; format: cell-based; settings: 3-day incubation, 50 nM free toxin
Description: (§1) Cell cycle analysis was performed using a Nucleocounter NC-3000 system (ChemoMetec Denmark), using the manufacturers standard protocol for analyzing the cell cycle distribution of a population of cells, based on the DNA content of each cell. The percentage of cells in Sub-G1, G1, S, or G2/M-phases of the cell cycle was established from histogram analysis using the NucleoView NC-3000 software.

THP-1 cells = experiment: Cell cycle distribution analysis; format: cell-based; settings: 3-day incubation, 50 nM free toxin
Description: as §1

U937 cells = experiment: Cell cycle distribution analysis; format: cell-based; settings: 3-day incubation, 50 nM free toxin
Description: as §1

HT1080 cells = experiment: Cell cycle distribution analysis; format: cell-based; settings: 3-day incubation, 50 nM free toxin
Description: as §1

uPARAP = target: T1, uPARAP (Homo sapiens, UniProt Q9UBG0); experiment: Western blotting of MG63 cell lysate; format: binding; set-up: endogenous in cells; host or cells: MG63 human osteosarcoma cells; settings: detergent lysate of uPARAP-positive MG63 human osteosarcoma cells
T1 sequence (Q9UBG0 31-1479): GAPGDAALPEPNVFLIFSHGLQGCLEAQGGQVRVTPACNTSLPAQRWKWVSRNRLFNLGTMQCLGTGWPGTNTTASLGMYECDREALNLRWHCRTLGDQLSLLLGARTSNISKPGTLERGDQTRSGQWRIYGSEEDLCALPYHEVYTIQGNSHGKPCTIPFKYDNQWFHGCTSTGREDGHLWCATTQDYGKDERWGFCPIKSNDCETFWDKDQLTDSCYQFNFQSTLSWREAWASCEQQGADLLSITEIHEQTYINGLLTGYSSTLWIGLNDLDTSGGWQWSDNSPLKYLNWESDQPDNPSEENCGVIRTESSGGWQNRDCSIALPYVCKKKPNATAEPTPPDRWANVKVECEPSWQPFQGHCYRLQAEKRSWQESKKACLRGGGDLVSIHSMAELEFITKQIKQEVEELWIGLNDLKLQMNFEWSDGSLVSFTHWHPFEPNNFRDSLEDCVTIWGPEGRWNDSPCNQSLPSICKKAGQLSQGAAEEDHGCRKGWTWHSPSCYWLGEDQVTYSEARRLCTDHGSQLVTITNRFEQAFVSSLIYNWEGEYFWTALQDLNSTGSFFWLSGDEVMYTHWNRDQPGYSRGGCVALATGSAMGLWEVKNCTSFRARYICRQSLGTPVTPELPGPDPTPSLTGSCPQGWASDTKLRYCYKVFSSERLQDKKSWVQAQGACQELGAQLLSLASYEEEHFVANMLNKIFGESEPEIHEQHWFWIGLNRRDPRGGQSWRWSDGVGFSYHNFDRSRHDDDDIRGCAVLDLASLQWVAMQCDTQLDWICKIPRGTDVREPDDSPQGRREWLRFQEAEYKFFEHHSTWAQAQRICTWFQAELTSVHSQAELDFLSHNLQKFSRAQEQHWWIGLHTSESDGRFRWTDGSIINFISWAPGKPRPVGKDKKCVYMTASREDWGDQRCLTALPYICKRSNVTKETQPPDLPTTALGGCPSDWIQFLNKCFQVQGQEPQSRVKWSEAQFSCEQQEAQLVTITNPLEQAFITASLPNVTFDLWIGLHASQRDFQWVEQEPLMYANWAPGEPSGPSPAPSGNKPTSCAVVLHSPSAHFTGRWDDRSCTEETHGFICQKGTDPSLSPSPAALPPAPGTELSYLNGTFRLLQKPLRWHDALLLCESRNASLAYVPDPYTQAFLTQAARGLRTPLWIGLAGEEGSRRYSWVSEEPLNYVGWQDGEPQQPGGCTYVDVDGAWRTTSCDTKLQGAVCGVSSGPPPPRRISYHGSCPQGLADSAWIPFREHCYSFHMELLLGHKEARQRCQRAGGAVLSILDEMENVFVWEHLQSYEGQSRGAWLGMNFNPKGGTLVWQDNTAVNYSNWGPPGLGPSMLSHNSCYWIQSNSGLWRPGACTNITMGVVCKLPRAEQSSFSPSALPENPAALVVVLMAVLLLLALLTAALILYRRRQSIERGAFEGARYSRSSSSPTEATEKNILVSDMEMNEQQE
Description: For Western blotting, a detergent cell lysate prepared from uPARAP-positive MG63 human osteosarcoma cells was analyzed, using identical concentrations of “2h9 cloned” and “2h9 original” as the primary antibodies. […] No reaction is seen in the absence of primary antibody (negative control).

Molecule: CC[C@H](C)[C@@H]([C@@H](CC(=O)N1CCC[C@H]1[C@H](OC)[C@@H](C)C(=O)N[C@H](C)[C@@H](O)c1ccccc1)OC)N(C)C(=O)[C@@H](NC(=O)[C@@H](NC)C(C)C)C(C)C [MMAE, monomethyl auristatin E, reference compound] (H-[NMeV]V[Dil][Dolaproine]-X1)
Cell cycle distribution (KNS42 cells): shift in cell cycle distribution towards the Sub-G1 and G2/M phases
Cell cycle distribution (THP-1 cells): shift in cell cycle distribution towards the Sub-G1 and G2/M phases
Cell cycle distribution (U937 cells): shift in cell cycle distribution towards the Sub-G1 and G2/M phases
Cell cycle distribution (HT1080 cells): shift in cell cycle distribution towards the Sub-G1 and G2/M phases

Reactivity in Western blotting (uPARAP; listed as recombinant antibody product): specifically recognize uPARAP
B1: 2h9 cloned: recombinant mAb 2h9 product produced in CHO cells from SEQ ID NO: 1 and SEQ ID NO: 5 (protein)
light: DIQMTQSPASQSASLGESVTITCLASQTIGTWLAWYQQKPGKSPQLLIYAATTLTDGVPSRFSGAGSGTKFSLKISSLQAEDFASYFCQEFFSTPFTFGSGTKLELKRADAAPTVSIFPPSSEQLTSGGASVVCFLNNFYPKDINVKWKIDGGERQNGVLNSWTDQDSKDSTYSMSSTLTLTKDEYERHNSYTCEATHKTSTSPIVKSFNRNEC
heavy: QVQLQQPGTELVRPGLSVKLSCKASGYTFTSYWMNWVKQRPGQGLEWIGMIHPSNDEKRINQKFKDKATLTVDKFSSTVYMQVSSPTSEDSAVYYCARGGGDYVGDYALDFWGQGTSVTVSSAKTTPPSVYPLAPGSAAQTNSMVTLGCLVKGYFPEPVTVTWNSGSLSSGVHTFPAVLQSDLYTLSSSVTVPSSTWPSETVTCNVAHPASSTKVDKKIVPRDCGCKPCICTVPEVSSVFIFPPKPKDVLTITLTPKVTCVVVDISKDDPEVQFSWFVDDVEVHTAQTQPREEQFNSTFRSVSELPIMHQDWLNGKEFKCRVNSAAFPAPIEKTISKTKGRPKAPQVYTIPPPKEQMAKDKVSLTCMITDFFPEDITVEWQWNGQPAENYKNTQPIMDTDGSYFIYSKLNVQKSNWEAGNTFTCSVLHEGLHNHHTEKSLSHSPGK
Reactivity in Western blotting (uPARAP): react specifically with the uPARAP protein

From patent publication US11819552B2, “Antibody-drug conjugates targeting uPARAP” (RIGSHOSPITALET, priority 2016, dated 2023)
